Laboratory results as given in patent US20130172324A1, “METHOD FOR TREATING CARDIOVASCULAR DISEASES USING RHO KINASE INHIBITOR COMPOUNDS” (priority 2008, published 2013).

Assays:
murine eosinophils = assay: Eotaxin-induced murine eosinophil chemotaxis; assay type: cell-based, mouse; conditions: 10 nM eotaxin challenge; FIG. 1
Method: Bronchoalveolar lavage was collected from ovalbumin sensitized and challenged mice in a volume of 2.5 mL lavage buffer. The lavage buffer was 0.9% saline with 10% fetal bovine serum. The pooled lavages were maintained on ice until use. The murine eosinophils were isolated using MACS cell separation (Miltenyi Biotech) by depletion of B cells and T cells by positive selection following incubation with antibody conjugated magnetic beads specific for CD45-R (B220) and CD90 (Thy 1.2), which bind B cells and T cells, respectively.
Eosinophil chemotaxis was assessed using a modified Boyden Chamber (Neuroprobe, 96-well) with a 5 μm pore membrane. The ability of the tested compounds to block chemotaxis induced by a 10 nM eotaxin challenge (mouse) or 1 nM eotaxin challenge (human) during one hour incubation at 37° C. with 5% CO2 was assessed. Chemotaxis was quantified via microscopy by counting the number of migrated cells in at least 3 view fields per treatment.

human eosinophils = assay: Eotaxin-induced human eosinophil chemotaxis; assay type: cell-based; conditions: 1 nM eotaxin challenge; FIG. 2
Excerpt: Peripheral blood from healthy human volunteers was collected and the PMNs separated via Ficoll-paque density centrifugation followed by hypotonic lysis of the red blood cells. Subsequently, the human eosinophils were isolated from the cell suspension via StemCell Technologies Human Eosinophil Enrichment kit (Cat. No 19256) according to the manufacturer's recommendations. Briefly, unwanted cells were specifically labeled with dextran-coated magnetic nanoparticles using bispecific Tetrameric Antibody Complexes (TAC) directed against cell surface antigens on human blood cells: […] The unwanted cells are then separated from the unlabelled eosinophils using the EasySep® magnetic isolation procedure.

rat trachea rings = assay: Tracheal relaxation assay (carbachol precontracted rings); conditions: for IC50: Rattus norvegicus, read-out: IC50 Avg;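 as to all read-outs here: isometric tension of rat tracheal rings in Krebs buffer with 1 µM indomethacin, compounds added cumulatively at 30 min intervals, basal tension subtracted, fit to Hill equation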
[1] = test system: ova-sensitized, ova-challenged mice; assay: Bronchodilator assay in ovalbumin-sensitized mice (Penh, methacholine); assay type: in vivo, mouse
Method: Male BALB/c mice were ordered from Charles River Laboratories (Raleigh, N.C.). The animals were approximately 19 to 21 grams at time of receipt. Upon arrival, the animals were randomized into groups of five males per cage and assigned to a dosing group. Animals were quarantined for 7 days under test conditions. They were observed daily for general health status and ability to adapt to the water bottles.
Animals were sensitized on day 0 and 14 of study by an intraperitoneal injection with 20 μg of ovalbumin (ova) and 2.0 mg aluminum hydroxide (alum) which initiates the development of a specific T-helper (Th) cells type 2 resulting in asthmatic animals. One group of animals received an injection of saline to use as non-asthmatic control animals. All animals were challenged with aerosolized 1% ova once daily for 25 minutes on days 28, 29, and 30 (Zosky, et al. Respiratory Research. 2004; 5:15). Aerosol challenge consists of using an Aerogen Aeroneb nebulizer and controller with a particle size of 4-6 μm mass median aerodynamic diameter (MMAD) with a distribution of 400 μl per minute. This aerosol challenge is necessary to target the Th2-driven allergic inflammation in the lower airways.
The test compounds and the control vehicle were administered to animals on the day of airway hyperreactivity evaluation 30 minutes to 1 hour before the evaluation to determine the bronchodilator effects of the compounds according to the bronchodilator dosing paradigm (FIG. 8). Compounds were administered p.o. (orally), i.p. (intraperitoneally) at 15 μMol/kg unless otherwise noted (Table 6). Alternatively, compounds were administered i.t. (intratracheally) at varying doses as shown (FIG. 9). On day 32 of the experiment, airway hyperreactivity was evaluated by placing conscious, unrestrained animals in a whole body plethysmometer (Buxco Wilmington, N.C.) and exposing them to escalating doses of nebulized methacholine, a known bronchial constrictor which acts through the muscarinic receptors of the lungs, (doses: 0.325-50 mg/ml). Exposure to the methacholine doses consisted of a 3 minute period during which a nebulizer was aerosolizing the methacholine and an additional 3 minute period following the cessation of nebulization. Over this 6 minute period, the plethysmometer monitors and generates numerical values for all parameters of the breath pattern. Enhanced pause (Penh), a unitless index of airway hyperreactivity, is derived from the expiratory side of the respiratory waveform measured via the plethysmograph and is used as an indirect measure of airway resistance and hyperreactivity. […] Following the methacholine dose response, all animals were anesthetized, bled and euthanized.
Within each experiment, a mouse was given a single compound and exposed to increasing doses of methacholine [0 (baseline), 0.375, 0.75, 1.5, 3, 6, 12, 25, 50 mg/ml]. The Penh value at each of the dose levels of methacholine represents the 6-minute average response. Change from baseline (CFB) in Penh was calculated at each methacholine dose and the area under the curve (AUC) for these CFB values was calculated using the trapezoidal rule. This same approach was applied for each mouse across multiple experiments.
For statistical analyses, a linear mixed-effects model where the response was the log 10 transformed value of AUC described above was used. Data from equal experimental conditions across experiments performed on different days were pooled for statistical analysis and data reporting. The various compounds were compared adjusting for the log 10-transformed baseline value of Penh and the chamber (1 of 10) of the plethysmometer each mouse was contained in during an experiment. A random intercept for each experiment was assumed to account for possible similarities of the results obtained from a given experiment (i.e., as a “blocking effect”). […] Computations were performed using PROC MIXED (SAS Version 9.1). […]

[2] = test system: ova-sensitized, ova-challenged mice; assay: In vivo anti-inflammatory assay in ovalbumin-sensitized mice (BALF eosinophils and cytokines); set-up: species or system mouse
Excerpt: A mouse model of asthma via ovalbumin sensitization was created as described in Example 23. The anti-inflammatory dosing paradigm (FIG. 10) was utilized to evaluate the anti-inflammatory effects of experimental compounds. The anti-inflammatory dosing paradigm consists of dosing the animals once a day starting on day 27 and finishing on either day 30 or 31 (1 hr prior to the aerosolized ovalbumin challenges on days 28 to 30) but not on day 32 when hyperreactivity evaluation occurs.
Bronchoalveolar lavage fluid (BALF) was collected by infusing 3.0 ml of saline with 10% fetal calf serum into the lungs via the trachea and then withdrawing the fluid. The total amount of cells/ml of BALF fluid was determined via manual cell count on hemocytometer. The BALF was centrifuged, supernatant removed and analyzed for cytokine concentrations as described below, and cell pellet reconstituted in 500 μL of fluid. Cytospin slides were prepared from the cell pellet using 100 μL of fluid and spinning samples for 5 minutes at 5000 rpms in a cytospin centrifuge. Following Hema3 stain, relative percentages of individual leukocytes were determined on a 200 cell count for each sample. The final concentration of individual leukocyte cell types per ml of BALF was determined by multiplication of the relative percentage of individual leukocytes with the total amount of cells/ml of BALF fluid.
The concentrations of cytokines in the BALF samples were determined using commercially available Bio-plex kits (Bio-Rad) for the detection of mouse IL-5, IL-13, and Eotaxin. The analysis of cytokine levels was measured using the Bio-Plex 200 (Bio-Rad) system according to the manufacturer's instructions.

[3] = test system: ova-sensitized, ova-challenged mice; assay: Prevention of airway hyperreactivity development, anti-inflammatory dosing paradigm (Penh); assay type: in vivo, mouse; conditions: oral 15 μMol/kg once a day during days 27 to 31; methacholine on Day 32
[4] = Rat oral pharmacokinetics (plasma); assay type: in vivo
Method: Plasma (EDTA K2 anticoagulant) was collected from male, cannulated, CD Sprague Dawley rats to determine the pharmacokinetics of formulations containing compound inhibitors of Rho kinase. Each animal was dosed orally with a 4 ml/kg solution or suspension of each test compound in 10 mM acetate buffered saline, pH 4.5 at a final concentration range of 20-30 μmol/kg. Blood was collected at 0.25, 0.5, 1, 2, 4, 6, 8, and 24 hours. Plasma samples were assayed for the concentration of the test compound using an on-line, solid phase extraction LC/MS/MS analysis system.
Samples were analyzed on a QSTAR Elite, hybrid quadrupole time-of-flight mass spectrometer (Applied Biosystems, Framingham, Mass.) coupled with a Symbiosis Pharma integrated, on-line SPE-HPLC system (Spark Holland Inc., Plainsboro, N.J.). Analyst QS 2.0 software was used for instrument control, data acquisition and processing. […] Mobile Phase A consisted of 0.1% ammonium hydroxide in water and Mobile Phase B consisted of 0.1% formic acid in acetonitrile. Pharmacokinetic analyses were performed using WinNonlin software version 5.2 (Pharsight Corporation, Mountain View, Calif.).
As determined from the plasma concentration versus time curves, the time to peak and peak exposure are represented by the values Tmax and Cmax, respectively. The AUC values (nM*hr) shown were calculated as the areas under the plasma concentration versus time curves from time zero through the time of the last observable value and represent the total exposure of the compound over the course of the study. Half-life values or the amount of time required for the plasma levels of the compound to decline to half the initial value are represented as t1/2.

[5] = test system: A-10 rat thoracic aorta cells; assay: PDGF-stimulated smooth muscle cell proliferation assay (BrdU); assay type: cell-based; conditions: 10 μM compound, 10 ng/mL PDGF, A-10 cells, percent of total challenge-stimulated proliferation
Method: Effects on cell proliferation were measured using a bromodeoxyuridine (BrdU) incorporation assay. […] Serum free media containing 0.1% BSA was added to the cells. 24 hours later the media was removed and replaced with warmed serum free media. […] Proliferation was then monitored using the BrdU Cell Proliferation Assay, HTS (Calbiochem cat. #HTS01). BrdU was allowed to incorporate into cells for 24 hours prior to the addition of fixative/denaturing solution and the fluorometric detection of incorporated BrdU using a BrdU antibody as per manufacturer's directions. Data are reported as a percent of the PDGF-stimulated BrdU incorporation.

rat pulmonary artery = assay: Pulmonary arterial relaxation assay (norepinephrine precontracted rings)
Method: Pulmonary artery or aorta were excised, cleaned of connective tissue and cut into cylindrical segments of 2-3 mm length. The preparations were mounted in a tissue bath by tying two threads of surgical silk through the lumen of the vessel. One silk was used to anchor the tissue to a metal wire in the bath and the other silk was connected to a force transducer. […] Contractile tensions were measured using an isometric force transducer (Grass Instruments) and signals were analyzed using specialized software (Chart v5.5, ADInstruments). The preparations were allowed to equilibrate at a resting tension of 0.1 to 0.2 gm for pulmonary artery and 2.0 gm for aorta prior to two challenges with 80 mM KCl to assess tissue viability. After washing, tissues were treated with 100 nM norepinephrine for 5 to 10 minutes to induce a contractile response. For pulmonary artery, compounds were added cumulatively to the bath every 30 minutes and reductions in tension were recorded. Basal tension was subtracted from all values and data was reported as a percentage of the maximal norephinephrine-induced contraction. Data were fit to the Hill equation using GraphPad Prism v5 software. For aorta, a single dose of compound was added and reductions in tension were recorded.

rat aorta = assay: Aortal relaxation assay (norepinephrine precontracted rings); conditions: 100 μM compound, 100 nM norepinephrine; FIG. 4B
Method: This assay is a model for selecting compounds for treating diseases that involve constriction of arterial smooth muscle, such as atherosclerosis and systemic hypertension. The effects of compounds to induce relaxation of pre-contracted rat pulmonary artery and rat aorta were determined. […] Pulmonary artery or aorta were excised, cleaned of connective tissue and cut into cylindrical segments of 2-3 mm length. The preparations were mounted in a tissue bath by tying two threads of surgical silk through the lumen of the vessel. One silk was used to anchor the tissue to a metal wire in the bath and the other silk was connected to a force transducer. […] Contractile tensions were measured using an isometric force transducer (Grass Instruments) and signals were analyzed using specialized software (Chart v5.5, ADInstruments). The preparations were allowed to equilibrate at a resting tension of 0.1 to 0.2 gm for pulmonary artery and 2.0 gm for aorta prior to two challenges with 80 mM KCl to assess tissue viability. […] For pulmonary artery, compounds were added cumulatively to the bath every 30 minutes and reductions in tension were recorded. Basal tension was subtracted from all values and data was reported as a percentage of the maximal norephinephrine-induced contraction. […] For aorta, a single dose of compound was added and reductions in tension were recorded.

[6] = rat, oral, 20-30 μmol/kg, plasma, mean of n = 3

For `CS(=O)(=O)Nc1cccc(CN2CC[C@@H](Nc3cccc4cnccc34)C2)c1` [Compound 2.038, (R)-N-(3-((3-(isoquinolin-5-ylamino)pyrrolidin-1-yl)methyl)phenyl)methanesulfonamide], the “chemotactic response of murine eosinophils” value (murine eosinophils) was “inhibited”, the “chemotactic response of human eosinophils” value (human eosinophils) was “inhibited” and the “Percentage of carbachol-induced contraction at 1 μM compound, Avg %” value (rat trachea rings; 1 μM compound, 1 μM carbachol) was 57.2%. The “Percentage of carbachol-induced contraction at 10 μM compound, Avg %” value (“Percentage … at 10 μM compound, Avg %” below) (rat trachea rings; 1 μM carbachol) was 10.2%, the IC50 (rat trachea rings) was 272 nM and the “Trachael Ring Contraction, %” value (rat trachea rings; average percentage of carbachol-induced rat tracheal ring contraction at 1 μM of test compound) was 57%. The “log10AUC (penh)” value ([1]; 15 μmol/kg oral, bronchodilator dosing paradigm) was 2.0813, the “reduction in airway hyperresponsiveness” value ([1]; oral doses) was “statistically significant reduction” and the “concentration of IL-5 in BALF” value ([2]; 15 μmol/kg/oral on days 27 to 31, FIG. 13) was “reduced levels”. The “concentration of Eotaxin in BALF” value ([2]; 15 μmol/kg/oral on days 27 to 31, FIG. 14) was “reduced levels”, the “concentration of IL-13 in BALF” value ([2]; 15 μmol/kg/oral on days 27 to 31, FIG. 15) was “reduced levels” and the “eosinophils per ml of BALF (airway eosinophil infiltration)” value ([2]; dosed orally to day 31, anti-inflammatory dosing paradigm, FIG. 11) was “reduced”. The “airway hyperreactivity to methacholine” value [3] was “prevention of airway hyperreactivity” and the “plasma and lung tissue concentrations after oral dosing” value ([4]; oral dosing, refers to Table 13 and Table 15) was “high plasma and lung tissue concentrations”.

With `CSc1ccc(CN2CC[C@@H](Nc3cccc4cnccc34)C2)cc1` [Compound 2.026, (R)-N-(1-(4-(methylthio)benzyl)pyrrolidin-3-yl)isoquinolin-5-amine] the “Percentage … at 10 μM compound, Avg %” value (rat trachea rings; 1 μM carbachol) was 17.1%, the IC50 (rat trachea rings) was 2860 nM and the “Percent of PDGF Induced Proliferation at 10 μM Avg” value [5] was 52.0%. The “AUC (0-last)” value [4, 6] was “BLQ”, the Cmax [4, 6] was “BLQ” and the Tmax [4, 6] was “BLQ”. For the same molecule, the Vz_F [4, 6] was “BLQ” and the t½ [4, 6] was “BLQ”.

For `OCCOc1cccc(CN2CC[C@@H](Nc3cccc4cnccc34)C2)c1` [Compound 2.039, (R)-2-(3-((3-(isoquinolin-5-ylamino)pyrrolidin-1-yl)methyl)phenoxy)ethanol], the “relaxant response in precontracted pulmonary artery” value (rat pulmonary artery; 100 nM norepinephrine precontracted, FIG. 4A) was “fully relaxed”, the IC50 (rat pulmonary artery; Rattus norvegicus, read-out: IC50 for compound-induced relaxation) was 151 nM and the “norepinephrine-induced contractile response (tension) of aortal ring” value (rat aorta) was “fully reversed”. The “Percentage … at 10 μM compound, Avg %” value (rat trachea rings; 1 μM carbachol) was 6.2% and the IC50 (rat trachea rings) was 343 nM.
